Measurements from patent US7553843B2, “Process for the preparation of purified crystalline CCI-779” (Wyeth, priority 2005, dated 2009).

Columns and labels:
[1] = test system: human glioblastoma cell line; conditions: in vitro; cited from earlier work
human tumor xenografts = conditions: nude mice; cited from earlier work
[2] = test system: histologically diverse tumor cells; conditions: in vitro, cited from earlier work
orthotopic glioma model = conditions: nude mice; cited from earlier work
[3] = Storage stability of purified crystalline CCI-779, HPLC strength; format: physicochemical
Excerpt: The good crystallinity of the purified CCI-779 contributes to the improved stability of the purified CCI-779 and longer shelf life, and contains less oxidative impurities. In one embodiment, the purified crystalline CCI-779 of the present invention degrades less than about 3%, less than about 2%, or less than about 1% over a period of about 1 month. Desirably, the purified crystalline CCI-779 retains greater than 97% strength over a period of about 3 months, and more desirably about 6 months at about 5° C. as measured by high performance liquid chromatography (HPLC), among other techniques. The strength is similarly maintained at elevated temperatures up to about 70° C., desirably up to about 51° C., more desirably temperatures up to about 25° C. and greater relative humidities up to about 60%, and most desirably temperatures at about 5° C., or combinations thereof. In one embodiment, the purified crystallized CCI-779 prepared according to the present invention maintains its stability at a temperature of about 25° C. and relative humidity of about 60% for up to about 3 months, and more desirably up to about 6 months.
Following nucleation, the batch was aged for 34 minutes as indicated by the FBRM® instrument to obtain stabilization of the chord count. The pentanediol and heptane were added as described in Example 1. The isolated purified crystalline CCI-779 was washed and dried at 40 EC under vacuum for 48 hours. A yield of 176.3 g of purified crystalline CCI-779 was obtained (87.6%). See Table 1 for the HPLC data for the purified CCI-779 obtained immediately after crystallization and samples tested after 2 weeks and 1 month at varying conditions.
This example was performed using the same protocol as described in Example 2. However, filtration of the crude CCI-779 solution in acetone was completed in 30 minutes by using a medium grit fritted funnel. Following distillation of the acetone, the batch was held as an amorphous foam/oil for 2 hours under reduced pressures. Diethyl ether was then added to the foam/oil and the diethyl ether solution was evaluated for acetone content (8.5 vol %). The diethylether (containing acetone) was then removed by distillation to obtain an amorphous foam. This foam was maintained under reduced pressures for 30 minutes and diethyl ether again added. The diethylether was again monitored for acetone contact and determined to be less than 3.6 vol % acetone. The crystallization was the continued as in Example 2. The induction time for nucleation, i.e., the time required to obtain a chord count for particles of about 1 to about 5 μm particles of greater than about 1500 chords/s was 26 minutes. Following the nucleation, the slurry was stirred for additional time to ensure stabilization of the nucleation. Following isolation and drying as outlined above, a final yield of 175.1 g of purified crystalline CCI-779 was obtained (87.3%). See Table 2, for the HPLC data for the purified crystalline CCI-779 obtained immediately after crystallization and samples tested after 2 weeks and 1 month at varying conditions.

- HPLC Strength ([3]; Example 2 batch, Initial (immediately after crystallization)): 101.09%
- HPLC Strength ([3]; Example 2 batch, storage 5° C., 1 Month): 97.42%
- HPLC Strength ([3]; Example 2 batch, storage 5° C., 2 Weeks): 101.09%
- HPLC Strength ([3]; Example 2 batch, storage 25° C./60% RH, 1 Month): 97.87%
- HPLC Strength ([3]; Example 2 batch, storage 25° C./60% RH, 2 Weeks): 101.07%
- HPLC Strength ([3]; Example 3 batch, Initial (immediately after crystallization)): 100.45%
- HPLC Strength ([3]; Example 3 batch, storage 5° C., 1 Month): 97.55%
- HPLC Strength ([3]; Example 3 batch, storage 5° C., 2 Weeks): 100.45%
- HPLC Strength ([3]; Example 3 batch, storage 25° C./60% RH, 1 Month): 97.81%
- HPLC Strength ([3]; Example 3 batch, storage 25° C./60% RH, 2 Weeks): 101.30%
SMILES: CO[C@H]1C[C@@H]2CC[C@@H](C)[C@@](O)(O2)C(=O)C(=O)N2CCCC[C@H]2C(=O)O[C@H]([C@H](C)C[C@@H]2CC[C@@H](OC(=O)C(C)(CO)CO)[C@H](OC)C2)CC(=O)[C@H](C)/C=C(\C)[C@@H](O)[C@@H](OC)C(=O)[C@H](C)C[C@H](C)/C=C/C=C/C=C/1C [CCI-779, Rapamycin 42-ester with 3-hydroxy-2-(hydroxymethyl)-2-methylpropionic acid]
- growth factor (platelet-derived)-induced stimulation of a human glioblastoma cell line [1]: markedly suppressed
- activity against human tumor xenografts of diverse histological types (human tumor xenografts): has activity
- growth of several human pancreatic tumors and one of two breast cancer lines (human tumor xenografts): inhibited
- growth of tumor cells ([2]; CNS cancer, T-cell leukemia, breast, prostate, melanoma lines most sensitive): inhibit the growth
- cell cycle effect [2]: arrested cells in the G1 phase
- activity in orthotopic glioma model (orthotopic glioma model): active
